# Experimental data reported in US20180214428A1, “3-(1H-INDOL-2-YL)-1H-PYRAZOLO[3,4-B]PYRIDINES AND THERAPEUTIC USES THEREOF” (Samumed, LLC, priority 2015, published 2018).
# How the values were obtained:
# [1] = system: Wnt activity (Sp5-Luc reporter gene, SW480 colon carcinoma cells); test: Screening assay for Wnt activity: Sp5-Luc reporter gene assay in SW480 cells; format: cell-based, human; conditions: Homo sapiens; for EC50: overnight incubation; for inhibition at 10 µM: given for EC50 of >10 μM, read-out: percent inhibition at 10 μM
# Source text: The screening assay for Wnt activity is described as follows. Reporter cell lines can be generated by stably transducing cancer cell lines (e.g., colon cancer) or primary cells (e.g., IEC-6 intestinal cells) with a lentiviral construct that includes a Wnt-responsive promoter driving expression of the firefly luciferase gene.
# SW480 colon carcinoma cells were transduced with a lentiviral vector expressing luciferase with a human Sp5 promoter consisting of a sequence of eight TCF/LEF binding sites. SW480 cells stably expressing the Sp5-Luc reporter gene and a hygromycin resistance gene were selected by treatment with 150 μg/mL of hygromycin for 7 days. These stably transduced SW480 cells were expanded in cell culture and used for all further screening activities. Each compound was dissolved in DMSO as a 10 mM stock and used to prepare compound source plates. Serial dilution (1:3, 10-point dose-response curves starting from 10 μM) and compound transfer was performed using the ECHO 550 (Labcyte, Sunnyvale, Calif.) into 384-well white solid bottom assay plates (Greiner Bio-One) with appropriate DMSO backfill for a final DMSO concentration of 0.1%. For Sp5-Luc reporter gene assays, the cells were plated at 4,000 cells/well in 384-well plates with medium containing 1% fetal bovine serum and incubated overnight at 37° C. and 5% CO2. Following incubation, 20 μl of BrightGlo luminescence reagent (Promega) was added to each well of the 384-well assay plates. The plates were placed on an orbital shaker for 2 min and then luminescence was quantified using the Envision (Perkin Elmer) plate reader. Readings were normalized to DMSO only treated cells, and normalized activities were utilized for EC50 calculations using the dose-response log (inhibitor) vs. response variable slope (four parameters) nonlinear regression feature available in GraphPad Prism 5.0 (or Dotmatics). For EC50 of >10 μM, the percent inhibition at 10 μM is provided.
# [2] = system: SW480 colon cancer cells; test: Cell viability assay (CellTiter-Blue) in SW480 colon cancer cells; format: cell-based, human; conditions: Homo sapiens; for EC50: 96 h, four days, CellTiter-Blue; for inhibition at 10 µM: given for EC50 of >10 μM, read-out: percent inhibition at 10 μM
# Protocol: Representative compounds were screened using the following assay procedure to assess the effect on cell viability as described below.
# Each compound was dissolved in DMSO as a 10 mM stock and used to prepare compound source plates. Serial dilution (1:3, 8-point dose-response curves from 10 μM to 0.0045 μM) and compound transfer was performed using the ECHO 550 (Labcyte, Sunnyvale, Calif.) into 96-well clear bottom, black-walled plates (Corning-Costar).
# Approximately 2×10^3 SW480 colon cancer cells were seeded into each well and allowed to incubate in the presence or absence of compound for four days at 37° C./5% CO2. Eight replicates of DMSO-treated cells served as controls and cells treated with compound were performed in duplicate.
# After incubation, 20 μL of CellTiter-Blue (Promega) was added to each well allowed to incubate for approximately 3 hours. This reagent was a buffered solution which contains resazurin, metabolically active cells were able to reduce rezarurin (blue) into resorufin (pink) which was highly fluorescent. This measured fluorescence was used as a readout for cell viability.
# After incubation, the plates were read at Ex 560 nm Em 590 nm (Cytation 3, BioTek). Dose-response curves were generated and EC50 concentration values were calculated using non-linear regression curve fit in the GraphPad Prism (San Diego, Calif.) or Dotmatics' Studies Software (Bishops Stortford, UK). For EC50 of >10 μM, the percent inhibition at 10 μM is provided.
Compound,EC50 [1] [µM],EC50 [2] [µM],inhibition at 10 µM [2] [%],inhibition at 10 µM [1] [%]
"Fc1cccc(-c2cccc3[nH]c(-c4n[nH]c5ncc(-c6ccncc6)cc45)cc23)c1 [Compound 15, 3-(4-(3-Fluorophenyl)-1H-indol-2-yl)-5-(pyridin-4-yl)-1H-pyrazolo[3,4-b]pyridine]",> 10,> 10,31.5,26
"Cc1ccncc1-c1cnc2[nH]nc(-c3cc4c(-c5ccc(F)cc5)cccc4[nH]3)c2c1 [Compound 27, 3-(4-(4-Fluorophenyl)-1H-indol-2-yl)-5-(4-methylpyridin-3-yl)-1H-pyrazolo[3,4-b]pyridine]",3.53,> 10,13.9,
"Cc1ccncc1-c1cnc2[nH]nc(-c3cc4c(-c5ccncc5)cccc4[nH]3)c2c1 [Compound 99, 5-(4-Methylpyridin-3-yl)-3-(4-(pyridin-4-yl)-1H-indol-2-yl)-1H-pyrazolo[3,4-b]pyridine]",> 10,> 10,36.8,69.3
"c1cc(-c2ccncc2)c2cc(-c3n[nH]c4ncc(-c5ccncc5)cc34)[nH]c2c1 [Compound 111, 5-(Pyridin-4-yl)-3-(4-(pyridin-4-yl)-1H-indol-2-yl)-1H-pyrazolo[3,4-b]pyridine]",> 10,> 10,36.4,17.6
"O=C(Nc1cncc(-c2cnc3[nH]nc(-c4cc5c(-c6ccncc6)cccc5[nH]4)c3c2)c1)C1CCCCC1 [Compound 115, N-(5-(3-(4-(Pyridin-4-yl)-1H-indol-2-yl)-1H-pyrazolo[3,4-b]pyridin-5-yl)pyridin-3-yl)cyclohexanecarboxamide]",5.42,> 10,24.3,
"c1ccc(CNCc2cncc(-c3cnc4[nH]nc(-c5cc6c(-c7ccncc7)cccc6[nH]5)c4c3)c2)cc1 [Compound 116, N-Benzyl-1-(5-(3-(4-(pyridin-4-yl)-1H-indol-2-yl)-1H-pyrazolo[3,4-b]pyridin-5-yl)pyridin-3-yl)methanamine]",3.82,3.59,,
"c1ccc(-c2cnc3[nH]nc(-c4cc5c(-c6ccncc6)cccc5[nH]4)c3c2)nc1 [Compound 120, 5-(Pyridin-2-yl)-3-(4-(pyridin-4-yl)-1H-indol-2-yl)-1H-pyrazolo[3,4-b]pyridine]",> 10,> 10,22.8,16.1
"O=C(Nc1cncc(-c2cnc3[nH]nc(-c4cc5c(N6CCCCC6)cccc5[nH]4)c3c2)c1)c1ccccc1 [Compound 155, N-(5-(3-(4-(Piperidin-1-yl)-1H-indol-2-yl)-1H-pyrazolo[3,4-b]pyridin-5-yl)pyridin-3-yl)benzamide]",3.47,> 10,31,
"CC(C)CC(=O)Nc1cncc(-c2cnc3[nH]nc(-c4cc5c(N6CCN(C)CC6)cccc5[nH]4)c3c2)c1 [Compound 202, 3-Methyl-N-(5-(3-(4-(4-methylpiperazin-1-yl)-1H-indol-2-yl)-1H-pyrazolo[3,4-b]pyridin-5-yl)pyridin-3-yl)butanamide]",4.47,4.84,,
"CN1CCN(c2cccc3[nH]c(-c4n[nH]c5ncc(-c6ccncc6)cc45)cc23)CC1 [Compound 218, 3-(4-(4-Methylpiperazin-1-yl)-1H-indol-2-yl)-5-(pyridin-4-yl)-1H-pyrazolo[3,4-b]pyridine]",> 10,9.07,,7.7
"CN1CCN(c2cccc3[nH]c(-c4n[nH]c5ncc(-c6cncnc6)cc45)cc23)CC1 [Compound 227, 3-(4-(4-Methylpiperazin-1-yl)-1H-indol-2-yl)-5-(pyrimidin-5-yl)-1H-pyrazolo[3,4-b]pyridine]",4.31,8.76,,

# Continued, in another order:
EC50 [1] [µM],EC50 [2] [µM],Compound,inhibition at 10 µM [2] [%],inhibition at 10 µM [1] [%]
0.295,> 10,"Fc1cccc(-c2cccc3[nH]c(-c4n[nH]c5ncc(-c6cccnc6)cc45)cc23)c1 [Compound 2, 3-(4-(3-Fluorophenyl)-1H-indol-2-yl)-5-(pyridin-3-yl)-1H-pyrazolo[3,4-b]pyridine]",4,
0.211,> 10,"CCCC(=O)Nc1cncc(-c2cnc3[nH]nc(-c4cc5c(-c6cccc(F)c6)cccc5[nH]4)c3c2)c1 [Compound 14, N-(5-(3-(4-(3-Fluorophenyl)-1H-indol-2-yl)-1H-pyrazolo[3,4-b]pyridin-5-yl)pyridin-3-yl)butyramide]",9.9,
1.48,> 10,"O=C(Nc1cncc(-c2cnc3[nH]nc(-c4cc5c(-c6cccc(F)c6)cccc5[nH]4)c3c2)c1)C1CCCCC1 [Compound 19, N-(5-(3-(4-(3-Fluorophenyl)-1H-indol-2-yl)-1H-pyrazolo[3,4-b]pyridin-5-yl)pyridin-3-yl)cyclohexanecarboxamide]",11.1,
2.05,> 10,"CC(C)(C)C(=O)Nc1cncc(-c2cnc3[nH]nc(-c4cc5c(-c6ccc(F)cc6)cccc5[nH]4)c3c2)c1 [Compound 30, N-(5-(3-(4-(4-Fluorophenyl)-1H-indol-2-yl)-1H-pyrazolo[3,4-b]pyridin-5-yl)pyridin-3-yl)pivalamide]",13.9,
2.83,> 10,"O=C(Nc1cncc(-c2cnc3[nH]nc(-c4cc5c(-c6ccc(F)cc6)cccc5[nH]4)c3c2)c1)c1ccccc1 [Compound 32, N-(5-(3-(4-(4-Fluorophenyl)-1H-indol-2-yl)-1H-pyrazolo[3,4-b]pyridin-5-yl)pyridin-3-yl)benzamide]",32.5,
0.543,5.1,"O=C(Nc1cncc(-c2cnc3[nH]nc(-c4cc5c(-c6ccc(F)cc6)cccc5[nH]4)c3c2)c1)C1CCC1 [Compound 41, N-(5-(3-(4-(4-Fluorophenyl)-1H-indol-2-yl)-1H-pyrazolo[3,4-b]pyridin-5-yl)pyridin-3-yl)cyclobutanecarboxamide]",,
2.17,> 10,"CC(C)(C)CC(=O)Nc1cncc(-c2cnc3[nH]nc(-c4cc5c(-c6ccccc6F)cccc5[nH]4)c3c2)c1 [Compound 61, N-(5-(3-(4-(2-Fluorophenyl)-1H-indol-2-yl)-1H-pyrazolo[3,4-b]pyridin-5-yl)pyridin-3-yl)-3,3-dimethylbutanamide]",25.2,
1.15,> 10,"O=C(Nc1cncc(-c2cnc3[nH]nc(-c4cc5c(-c6ccccc6F)cccc5[nH]4)c3c2)c1)C1CCCC1 [Compound 66, N-(5-(3-(4-(2-Fluorophenyl)-1H-indol-2-yl)-1H-pyrazolo[3,4-b]pyridin-5-yl)pyridin-3-yl)cyclopentanecarboxamide]",53.2,
3.39,> 10,"CCCCC(=O)Nc1cncc(-c2cnc3[nH]nc(-c4cc5c(N6CCCCC6)cccc5[nH]4)c3c2)c1 [Compound 163, N-(5-(3-(4-(Piperidin-1-yl)-1H-indol-2-yl)-1H-pyrazolo[3,4-b]pyridin-5-yl)pyridin-3-yl)pentanamide]",38,
2.71,> 10,"CC(C)C(=O)Nc1cncc(-c2cnc3[nH]nc(-c4cc5c(N6CCN(C)CC6)cccc5[nH]4)c3c2)c1 [Compound 209, N-(5-(3-(4-(4-Methylpiperazin-1-yl)-1H-indol-2-yl)-1H-pyrazolo[3,4-b]pyridin-5-yl)pyridin-3-yl)isobutyramide]",41.5,
0.66,> 10,"c1cncc(-c2cnc3[nH]nc(-c4cc5ccccc5[nH]4)c3c2)c1 [Compound 231, 3-(1H-Indol-2-yl)-5-(pyridin-3-yl)-1H-pyrazolo[3,4-b]pyridine]",9.1,
1.64,> 10,"CC(C)(C)CC(=O)Nc1cncc(-c2cnc3[nH]nc(-c4cc5ccccc5[nH]4)c3c2)c1 [Compound 242, N-(5-(3-(1H-Indol-2-yl)-1H-pyrazolo[3,4-b]pyridin-5-yl)pyridin-3-yl)-3,3-dimethylbutanamide]",14.3,
